Measurements as given in ChEMBL document CHEMBL1131938, “Leucine-phenylalanine dipeptide-based N-mesyloxysuccinimides: synthesis of all four stereoisomers and their assay against serine proteases” (Bioorg Med Chem Lett, 1999).

Tests used:
[1] = target: T1, Neutrophil elastase (Homo sapiens) (UniProt P08246); experiment: Inhibitory activity against human neutrophil elastase after 30 min incubation; design: concentration or dose not given beside the values
T1 sequence (whole entry): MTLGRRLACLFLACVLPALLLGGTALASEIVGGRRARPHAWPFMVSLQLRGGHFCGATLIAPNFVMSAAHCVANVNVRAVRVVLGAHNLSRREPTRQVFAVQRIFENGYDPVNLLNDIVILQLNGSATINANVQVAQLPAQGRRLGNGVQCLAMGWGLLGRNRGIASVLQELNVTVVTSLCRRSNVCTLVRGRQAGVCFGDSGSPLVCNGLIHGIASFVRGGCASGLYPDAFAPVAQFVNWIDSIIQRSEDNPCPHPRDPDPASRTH

[2] = target: Chymotrypsinogen A (Bos taurus) (UniProt P00766); experiment: Inhibitory activity against Chymotrypsinogen enzyme was determined
[3] = target: Chymotrypsinogen A (Bos taurus) (UniProt P00766); experiment: Inhibitory activity against Chymotrypsinogen was determined

inhibition [1] [%] | k obs / 1 [2] [M⁻¹ s⁻¹] | k obs / 1 [3] [M⁻¹ s⁻¹] | Compound
72 | 244 |  | CC(=O)N[C@H](CC(C)C)C(=O)N[C@]1(Cc2ccccc2)CC(=O)N(OS(C)(=O)=O)C1=O
48 | 180 |  | CCCCOC(=O)N[C@@H](CC(C)C)C(=O)N[C@]1(Cc2ccccc2)CC(=O)N(OS(C)(=O)=O)C1=O
56 | 217 |  | CC(=O)N[C@]1(Cc2ccccc2)CC(=O)N(OS(C)(=O)=O)C1=O
24 |  | 28 | CC(=O)N[C@@H](CC(C)C)C(=O)N[C@@]1(Cc2ccccc2)CC(=O)N(OS(C)(=O)=O)C1=O
6 | 9 |  | CC(=O)N[C@H](CC(C)C)C(=O)N[C@@]1(Cc2ccccc2)CC(=O)N(OS(C)(=O)=O)C1=O
63 | 170 |  | CC(=O)N[C@@H](CC(C)C)C(=O)N[C@]1(Cc2ccccc2)CC(=O)N(OS(C)(=O)=O)C1=O
